In US10221179B2, “Substituted pyrazoloquinazolinones and pyrroloquinazolinones as allosteric modulators of group II metabotropic glutamate receptors” (DOMAIN THERAPEUTICS, priority 2014, dated 2019):
Read-outs that look alike come from different tables or passages of the source.

Key:
human mGluR3 (hmGluR3) = target: T1, human mGluR3 (hmGluR3) (Homo sapiens, UniProt Q14832); test: Ca++ functional assay, human mGluR3 transiently over-expressed in HEK-293 cells (agonist and negative allosteric modulator modes); format: cell-based; conditions: glutamate at EC80, intracellular calcium (Fluo4AM)
T1 construct: expressed in transfected cells; host or cells: HEK-293 cells, transient co-transfection by electroporation
T1 sequence (Q14832 23-879): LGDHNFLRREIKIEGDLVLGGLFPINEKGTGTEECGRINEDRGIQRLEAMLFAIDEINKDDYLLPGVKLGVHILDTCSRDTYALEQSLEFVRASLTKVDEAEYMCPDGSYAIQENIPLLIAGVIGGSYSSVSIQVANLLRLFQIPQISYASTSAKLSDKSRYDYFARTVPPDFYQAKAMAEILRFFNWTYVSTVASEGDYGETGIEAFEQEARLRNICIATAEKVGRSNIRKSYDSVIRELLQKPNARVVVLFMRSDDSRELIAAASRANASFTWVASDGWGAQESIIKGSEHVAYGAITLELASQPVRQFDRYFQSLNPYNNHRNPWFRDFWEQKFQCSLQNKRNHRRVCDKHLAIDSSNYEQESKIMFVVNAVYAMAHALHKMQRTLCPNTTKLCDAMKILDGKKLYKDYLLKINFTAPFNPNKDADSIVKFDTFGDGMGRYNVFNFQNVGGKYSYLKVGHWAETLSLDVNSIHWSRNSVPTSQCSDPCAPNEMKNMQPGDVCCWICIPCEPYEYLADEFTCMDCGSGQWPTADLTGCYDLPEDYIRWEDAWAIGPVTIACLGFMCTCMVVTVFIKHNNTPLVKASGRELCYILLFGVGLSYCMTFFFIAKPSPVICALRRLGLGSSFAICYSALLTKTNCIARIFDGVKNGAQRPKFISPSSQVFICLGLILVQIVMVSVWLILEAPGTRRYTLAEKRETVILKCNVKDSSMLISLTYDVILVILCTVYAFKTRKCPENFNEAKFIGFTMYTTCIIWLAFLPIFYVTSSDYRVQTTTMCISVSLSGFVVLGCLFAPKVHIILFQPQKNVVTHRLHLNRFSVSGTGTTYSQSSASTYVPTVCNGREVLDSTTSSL
Procedure: (§1) Example 127: Human mGluR2 and mGluR3 Evaluation Using Ca^++ Functional Assay
Examples of the present invention were tested successively for their agonist and negative allosteric modulator activities on human mGluR2 (hmGluR2) and mGluR3 (hmGluR3) transiently over-expressed in HEK-293 cells. Compounds exert agonist activity if, by themselves in absence of glutamate, they are able to activate hmGluR2 or hmGluR3; and they exert negative allosteric modulator activity if they decrease the action of glutamate (which is employed at its EC80 concentration).
Cell Culture and Transfection […]
(§2) Receptor activity is detected by changes in intracellular calcium measured using the fluorescent Ca^2+ sensitive dye, Fluo4AM (Molecular Probes).
On the day of the assay, culture medium is aspirated and replaced during 3 hours by medium without serum supplemented with 1% Glutamax, 1% Penicillin/Streptomycin and 1% non-essential amino acids. […] Addition of compounds and intracellular Ca^2+ measurements (excitation 485 nm, emission 525 nm) are performed by the fluorescence microplate reader FLIPRTetra (Molecular Devices).
Agonist and negative allosteric modulator activities of compounds are consecutively evaluated on the same cell plate. […] Then, cells are stimulated by an EC80 glutamate concentration and fluorescence is recorded for additional 3 minutes. […]

human mGluR2 (hmGluR2) = target: T2, human mGluR2 (hmGluR2) (Homo sapiens, UniProt Q14416); test: Ca++ functional assay, human mGluR2 transiently over-expressed in HEK-293 cells (agonist and negative allosteric modulator modes); format: cell-based; conditions: glutamate at EC80, intracellular calcium (Fluo4AM)
T2 construct: expressed in transfected cells; host or cells: HEK-293 cells, transient co-transfection by electroporation
T2 sequence (Q14416 19-872): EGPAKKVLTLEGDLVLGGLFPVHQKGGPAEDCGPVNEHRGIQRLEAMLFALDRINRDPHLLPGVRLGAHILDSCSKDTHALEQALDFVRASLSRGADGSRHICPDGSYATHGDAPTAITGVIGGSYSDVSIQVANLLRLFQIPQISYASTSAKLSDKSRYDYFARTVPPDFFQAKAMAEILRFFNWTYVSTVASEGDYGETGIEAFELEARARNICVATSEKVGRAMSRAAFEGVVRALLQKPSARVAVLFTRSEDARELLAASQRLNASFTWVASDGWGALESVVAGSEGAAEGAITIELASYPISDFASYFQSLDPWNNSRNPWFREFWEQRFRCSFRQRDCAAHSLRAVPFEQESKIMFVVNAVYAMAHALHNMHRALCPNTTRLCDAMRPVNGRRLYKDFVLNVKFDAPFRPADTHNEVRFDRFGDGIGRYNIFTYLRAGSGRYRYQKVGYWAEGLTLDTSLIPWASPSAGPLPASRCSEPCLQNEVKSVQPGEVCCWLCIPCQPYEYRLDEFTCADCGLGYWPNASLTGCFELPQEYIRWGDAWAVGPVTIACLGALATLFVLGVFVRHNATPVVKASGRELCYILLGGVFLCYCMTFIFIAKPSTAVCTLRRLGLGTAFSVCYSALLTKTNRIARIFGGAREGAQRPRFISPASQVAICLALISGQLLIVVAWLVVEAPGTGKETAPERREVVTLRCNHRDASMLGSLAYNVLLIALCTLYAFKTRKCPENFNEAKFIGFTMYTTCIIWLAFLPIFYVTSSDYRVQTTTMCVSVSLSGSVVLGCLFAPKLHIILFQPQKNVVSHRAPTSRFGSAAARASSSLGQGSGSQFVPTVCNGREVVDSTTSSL
Procedure: as §1
Examples of the present invention were tested successively for their agonist and negative allosteric modulator activities on human mGluR2 (hmGluR2) and mGluR3 (hmGluR3) transiently over-expressed in HEK-293 cells.
Cell Culture and Transfection
HEK-293 cells are maintained in Modified Eagle's Medium supplemented with 10% Foetal Calf Serum, 1% Penicillin/Streptomycin and 1% non-essential amino acids at 37° C./5% CO2.
Cells are co-transfected by electroporation with four DNA plasmids encoding hmGluR2 or hmGluR3, a chimeric G protein allowing redirection of the activation signal to intracellular calcium pathway (Brabet I et al., Neuropharmacology 37(8), 1043-51, 1998), and two glutamate transporters minimizing receptor desensitization by endogenous glutamate. After transfection, cells are cultured for 24 h at 37° C./5% CO2.
Calcium Assay IC50 Determination
as §2
On the day of the assay, culture medium is aspirated and replaced during 3 hours by medium without serum supplemented with 1% Glutamax, 1% Penicillin/Streptomycin and 1% non-essential amino acids. Then, cells are washed with freshly prepared buffer B (HBSS 1×(PAA), Hepes 20 mM, MgSO4-7H2O 1 mM, Na2CO3 3.3 mM, CaCl2-2H2O 1.3 mM, 0.1% BSA, Probenecid 2.5 mM) and loaded at 37° C. in 5% CO2 for 1.5 hours with buffer B containing 1 μM Fluo4AM, 0.1 mg/mL Pluronic Acid, 7 μg/mL Glutamate Pyruvate Transaminase and 2 mM sodium pyruvate. Afterwards cells are washed twice with buffer B. Then cells are detached using StemPro Accutase (Fischer Scientific), resuspended in buffer B and seeded in 384 well plate at a density of 30,000 cells per well. Addition of compounds and intracellular Ca^2+ measurements (excitation 485 nm, emission 525 nm) are performed by the fluorescence microplate reader FLIPRTetra (Molecular Devices).
Agonist and negative allosteric modulator activities of compounds are consecutively evaluated on the same cell plate. […] Then, cells are stimulated by an EC80 glutamate concentration and fluorescence is recorded for additional 3 minutes. EC80 glutamate concentration is the concentration giving 80% of the maximal glutamate response. Agonist or negative allosteric modulator activity(ies) are evaluated in comparison to basal signals evoked by buffer B or EC80 glutamate alone, respectively.
For IC50 determination, a dose-response test is performed using 20 concentrations (ranging over 6 logs) of each compound. Dose-response curves are fitted using the sigmoidal dose-response (variable slope) analysis in GraphPad Prism program (Graph Pad Inc) and IC50 of negative allosteric modulator activity is calculated. Dose-response experiments are performed in duplicate, two times independently.

[1] = read-out: IC50 for human mGluR2 (negative allosteric modulator activity)
[2] = read-out: hmGluR2 negative allosteric modulator activity IC50

SMILES	IC50 (human mGluR3 (hmGluR3)) [µM]	IC50 (human mGluR2 (hmGluR2); [1]) [µM]	IC50 (human mGluR2 (hmGluR2); [2]) [µM]	melting point [°C]
Cn1c(=O)c2ccccc2n2nc(-c3ccnc(Cl)c3)cc12 [Example 1, 2-(2-Chloro-pyridin-4-yl)-4-methyl-4H-pyrazolo[1,5-a]quinazolin-5-one]	> 1	< 0.1	< 1	
C=Cc1cc(-c2cc3n(C)c(=O)c4ccccc4n3n2)ccn1 [Example 9, 4-Methyl-2-(2-vinyl-pyridin-4-yl)-4H-pyrazolo[1,5-a]quinazolin-5-one]	> 1	< 0.1	< 1	
COc1cc2c(=O)n(C)c3cc(-c4ccnc(C(F)(F)F)c4)nn3c2cc1N1CCC(O)CC1 [Example 90, 8-(4-Hydroxy-piperidin-1-yl)-7-methoxy-4-methyl-2-(2-trifluoromethyl-pyridin-4-yl)-4H-pyrazolo[1,5-a]quinazolin-5-one]			< 1	> 250
COc1ccc2c(c1)c(=O)n(C)c1cc(-c3ccnc(OCC(F)(F)F)c3)nn21 [Example 102, 7-Methoxy-4-methyl-2-[2-(2,2,2-trifluoro-ethoxy)-pyridin-4-yl]-4H-pyrazolo[1,5-a]quinazolin-5-one]			< 1	172 to 180
Cn1c(=O)c2ccc(C(=O)N3CC(O)C3)cc2n2nc(-c3ccnc(C(F)(F)F)c3)cc12 [Example 110, 8-(3-Hydroxy-azetidine-1-carbonyl)-4-methyl-2-(2-trifluoromethyl-pyridin-4-yl)-4H-pyrazolo[1,5-a]quinazolin-5-one]			< 1	> 250
Cn1c(=O)c2ccc(N3CCC(O)CC3)cc2n2nc(-c3ccnc(C4CC4)c3)cc12 [Example 113, 2-(2-Cyclopropyl-pyridin-4-yl)-8-(4-hydroxy-piperidin-1-yl)-4-methyl-4H-pyrazolo[1,5-a]quinazolin-5-one]			< 1	221 to 233
Cn1c(=O)c2ccc(F)cc2n2nc(-c3ccnc(C(F)F)c3)cc12 [Example 114, 2-(2-Difluoromethyl-pyridin-4-yl)-8-fluoro-4-methyl-4H-pyrazolo[1,5-a]quinazolin-5-one]			< 1	220 to 226
Cn1c(=O)c2ccc(N3CCC(O)CC3)cc2n2nc(-c3ccnc(C(F)F)c3)cc12 [Example 115, 2-(2-Difluoromethyl-pyridin-4-yl)-8-(4-hydroxy-piperidin-1-yl)-4-methyl-4H-pyrazolo[1,5-a]quinazolin-5-one]			< 1	> 250
Cn1c(=O)c2ccc(F)cc2n2nc(-c3ccnc(C4CCC4)c3)cc12 [Example 116, 2-(2-Cyclobutyl-pyridin-4-yl)-8-fluoro-4-methyl-4H-pyrazolo[1,5-a]quinazolin-5-one]			< 1	210 to 220
Cn1c(=O)c2cc(F)c(NCCC#N)cc2n2nc(-c3ccnc(C(F)(F)F)c3)cc12 [Example 121, 3-[7-Fluoro-4-methyl-5-oxo-2-(2-trifluoromethyl-pyridin-4-yl)-4,5-dihydro-pyrazolo[1,5-a]quinazolin-8-ylamino]-propionitrile]			< 1	> 250
CC1CN(c2ccc3c(=O)n(C)c4cc(-c5ccnc(C(F)(F)F)c5)nn4c3c2)CC(C)O1 (stereo not drawn) [Example 125, 8-(2,6-Dimethyl-morpholin-4-yl)-4-methyl-2-(2-trifluoromethyl-pyridin-4-yl)-4H-pyrazolo[1,5-a]quinazolin-5-one]			< 1	> 250

Now from value to molecule:

IC50 (human mGluR3 (hmGluR3)) [µM]	IC50 (human mGluR2 (hmGluR2); [1]) [µM]	IC50 (human mGluR2 (hmGluR2); [2]) [µM]	melting point [°C]	SMILES
		< 1	> 206	Cn1c(=O)c2cc(F)c(F)cc2n2nc(-c3ccnc(C(F)(F)F)c3)cc12 [Example 88, 7,8-Difluoro-4-methyl-2-(2-trifluoromethyl-pyridin-4-yl)-4H-pyrazolo[1,5-a]quinazolin-5-one]
		< 1	220 to 230	COc1cc2c(=O)n(C)c3cc(-c4ccnc(C(F)(F)F)c4)nn3c2cc1F [Example 89, 8-Fluoro-7-methoxy-4-methyl-2-(2-trifluoromethyl-pyridin-4-yl)-4H-pyrazolo[1,5-a]quinazolin-5-one]
		< 1	> 250	CN(C)c1cc2c(cc1F)c(=O)n(C)c1cc(-c3ccnc(C(F)(F)F)c3)nn21 [Example 91, 8-Dimethylamino-7-fluoro-4-methyl-2-(2-trifluoromethyl-pyridin-4-yl)-4H-pyrazolo[1,5-a]quinazolin-5-one]
		< 1	> 250	Cn1c(=O)c2cc(F)c(N3CC(O)C3)cc2n2nc(-c3ccnc(C(F)(F)F)c3)cc12 [Example 119, 7-Fluoro-8-(3-hydroxy-azetidin-1-yl)-4-methyl-2-(2-trifluoromethyl-pyridin-4-yl)-4H-pyrazolo[1,5-a]quinazolin-5-one]
		< 1	> 250	Cn1c(=O)c2cc(F)c(OC3COC3)cc2n2nc(-c3ccnc(C(F)(F)F)c3)cc12 [Example 120, 7-Fluoro-4-methyl-8-(oxetan-3-yloxy)-2-(2-trifluoromethyl-pyridin-4-yl)-4H-pyrazolo[1,5-a]quinazolin-5-one]
		< 1	> 250	Cn1c(=O)c2cc(F)c(N3CCCC3CO)cc2n2nc(-c3ccnc(C(F)(F)F)c3)cc12 (stereo not drawn) [Example 122, 7-Fluoro-8-(2-hydroxymethyl-pyrrolidin-1-yl)-4-methyl-2-(2-trifluoromethyl-pyridin-4-yl)-4H-pyrazolo[1,5-a]quinazolin-5-one]
